From patent publication US20140099385A1, “INHIBITION OF FATTY ACID AND C[…] BY CARBON MONOXIDE (CO)” (priority 2011, published 2014)

Tests used:
[1] = 25° C.; cited from earlier work
[2] = molecular target: PGRMC1 (Homo sapiens, UniProt O00264); test: Absorption spectrum of the PGRMC1 protein (CO binding to heme); conditions: FIG. 3
Source text: FIG. 3 is the graphs showing the absorption spectrum of the PGRMC1 protein.
Furthermore, PGRMC1 (Progesterone Receptor Membrane associated Component 1) was identified as one of the molecules involved with the inhibition of fatty acid or cholesterol uptake by CO. PGRMC1 is a heme binding protein, and an absorption peak is thought to have appeared at 419 nm because CO bound to the heme of PGRMC1 (FIG. 3). […] Thus, when the PGRMC1 gene was knocked down in a cell, the uptake of a fatty acid was suppressed (FIG. 4).

[3] = system: human hepatoma cell line HuH7 cell; test: Stearic acid uptake inhibition in a cell by CO (Nile Red staining, fluorescence microscope); type: cell-based; conditions: 400 μM stearic acid, 1 μM test substance, 12 hours, FIG. 1
Experimental: The human hepatoma cell line HuH7 cell was seeded in a 6-well plate (Iwaki) covered with a slide glass (1 cm^2; matsunami glass) and cultured using DMEM+10% FCS in a CO2 incubator overnight. After the culture, the medium was discarded, 1% BSA (Wako Pure Chemical Industries, Ltd.) wherein stearic acid (sigma) was dissolved in serum free DMEM to give a final concentration of 400 μM was added thereto, and the cell was cultured again for 12 hours in a CO2 incubator. Further, as a CO sustained-release drug, 1 μM of CO—Ru (Sigma CORM2 ([Ru(CO)3Cl2]2)) was used) or 1 μM of ruthenium complex as a control was added together with a fatty acid to carry out the culture. Subsequently, the medium was discarded, the cell was washed 3 times with PBS, and Nile Red reagent (sigma) dissolved in PBS on the slide glass so as to be 100 ng/ml was added to react for 5 minutes, thereby staining the fatty acid. Further, the cell was washed 3 times with PBS, DAPI reagent (2 ng/ml; Wako Pure Chemical Industries, Ltd.) was added to react for 5 minutes, thereby staining the nucleus. The nucleus was observed using a fluorescence microscope, whereby Nile Red derived Green fluorescence as the fatty acid and DAPI derived Blue fluorescence were detected. […]

[4] = system: HuH7 cell; test: LDL uptake inhibition in a cell by CO (FITC-conjugated LDL, fluorescence microscope); type: cell-based, human; conditions: FITC-conjugated LDL 8 mg/ml, 1 μM CO—Ru, 2 hours, FIG. 2
Experimental: After culturing the HuH7 cell in the same manner as above in a dish covered with a slide glass, the medium was discarded, and fluorescence-labeled FITC-conjugated LDL (Molecular Probes) was added to serum free DMEM so as to give the final concentration of 8 mg/ml to carry out the culture for 2 hours (control). Additionally, at the same time with this procedure, 1 μM of CO—Ru was added in the same manner as above to carry out the analysis. After culturing, the medium was discarded, the cell was washed 3 times with PBS and DAPI reagent (2 ng/ml; Wako Pure Chemical Industries, Ltd.) was added to react for 5 minutes. The observation was carried out using a fluorescence microscope, whereby FITC-LDL derived Green fluorescence as the […] and DAPI derived Blue fluorescence were detected. […] On the other hand, in the cell to which CO—Ru was added, the margin of blue stained area is not stained green.

[5] = system: HuH7 cell; test: Stearic acid and palmitic acid uptake in a cell wherein the PGRMC1 gene is knocked down by siRNA; type: cell-based, human; conditions: HuH7 cell transfected with siRNA
Experimental: In the experiment of Example 1, siRNA (sequence: […]) (SEQ ID NO: 1) targeting PGRMC1 was transfected to the cell line HuH7 cell derived from human hepatocellular carcinoma by the lipofection method (Lipofectamin 2000, INVITROGEN Corporation) to knockdown the PGMRMC1 gene. In the same manner as in Example 1, 1% BSA (Wako Pure Chemical Industries, Ltd.) wherein stearic acid (sigma) or palmitic acid was dissolved to give the final concentration of 400 μM was added to the HuH7 cell wherein the PGRMC1 gene was knocked down, and the cell was cultured. The medium was discarded, the cell was washed 3 times with PBS, and Nile Red reagent (sigma) dissolved in PBS on the slide glass so as to be 100 ng/ml was added to react for 5 minutes, thereby staining the fatty acid. Further, the cell was washed 3 times with PBS, DAPI reagent (2 ng/ml; Wako Pure Chemical Industries, Ltd.) was added to react for 5 minutes, thereby staining the nucleus. The nucleus was observed using a fluorescence microscope, whereby Nile Red derived Green fluorescence as the fatty acid and DAPI derived Blue fluorescence were detected. […] On the other hand, when palmitic acid (FIG. 4C) or stearic acid (FIG. 4D) was added to the cell wherein the PGRMC1 gene was knocked down, the margin of blue stained area is not stained green.

PGRMC1, sequence (O00264 whole entry, species assumed): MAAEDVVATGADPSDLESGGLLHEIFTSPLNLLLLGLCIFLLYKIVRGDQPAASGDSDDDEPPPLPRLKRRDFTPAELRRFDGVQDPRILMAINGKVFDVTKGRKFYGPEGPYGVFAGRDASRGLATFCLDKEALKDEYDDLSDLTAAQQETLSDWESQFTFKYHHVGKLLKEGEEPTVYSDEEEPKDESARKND

## [C-]#[O+] [CO, carbon monoxide]
[1]
  amount of CO that can be dissolved in aqueous solution: about 21.4 mL per liter
[2]
  absorption peak on CO binding to the heme of PGRMC1: 419 nm

## [C-]#[O+].[C-]#[O+].[C-]#[O+].[C-]#[O+].[C-]#[O+].[C-]#[O+].[Cl][Ru][Cl].[Cl][Ru][Cl] [CO—Ru, [Ru(CO)3Cl2]2]
[3]
  uptake of stearic acid in the cell (green Nile Red staining): the uptake of stearic acid was inhibited
[4]
  uptake of LDL in the cell (FITC-LDL green fluorescence): the uptake of LDL was inhibited

## siRNA: siRNA (sequence: GAUGUGACCAAAGGCCCGCAAAUUCU) targeting PGRMC1 (listed as RNA, chemistry not given here)
[5]; 400 μM palmitic acid, FIG. 4C
  uptake of palmitic acid in the PGRMC1 knockdown cell: inhibited
[5]; 400 μM stearic acid, FIG. 4D
  uptake of stearic acid in the PGRMC1 knockdown cell: inhibited
